Activity calls are given as the source filed them. The rule behind the calls is not given here. Bounds are passed on as bounds.

The target in this assay is intestinal alkaline phosphatase Alpi (Mus musculus). Kind of assay: mouse IAP enzyme activators, SAR follow-up, human IAP activator project, biochemical (AID 493128). Conditions: purified mouse IAP enzyme activity, activation.
As for `COc1ccc(-c2csc(Nc3cccc4ccccc34)n2)cc1F`, the EC50 is > 100 µM (inactive).

On to `C/C(=N\NC(=O)c1cc(C)[nH]n1)c1ccc2ccccc2c1O`, for which the EC50 was > 100 µM (inactive).

For the compound `COc1cccc(C=NNC(=O)c2cc(-c3cccn3C)n[nH]2)c1O`, the EC50 was > 100 µM (inactive).

As to `O=C(N/N=C\c1cccc(O)c1)C(=O)N/N=C/c1cccc(O)c1`, the EC50 was > 100 µM (inactive).

In the case of `O=C(N/N=C/c1c(O)ccc2ccccc12)c1cc(-c2cccs2)[nH]n1`, the EC50 was > 100 µM (inactive).

For `CC(C)Oc1ccccc1/C=N/NC(=O)C(=O)N/N=C/c1ccccc1OC(C)C`, the EC50 was > 100 µM (inactive).

For the compound `O=C(N/N=C/c1cc(Br)ccc1O)c1cc(C2CC2)[nH]n1`, the EC50 was > 100 µM (inactive).

Consider `CC(C)C(=O)NC(=S)Nc1ccccc1C(=O)Nc1ccccc1`, for which the EC50 was > 100 µM (inactive).

On to `CN(C)c1ccc(/C=N/NC(=O)C(=O)N/N=C/c2ccc(N(C)C)cc2)cc1`, for which the EC50 was > 100 µM (inactive).

In the case of `CCOc1cccc(C=NNC(=O)c2cc(-c3cccn3C)n[nH]2)c1O`, the EC50 is > 100 µM (inactive).

`COc1cc(/C=N/NC(=O)C(=O)N/N=C/c2cc(OC)c(OC)c(OC)c2)cc(OC)c1OC`: the EC50 is > 100 µM (inactive).

As for `O=C(N/N=C/c1cc(Br)ccc1O)C(=O)N/N=C/c1cc(Br)ccc1O`, the EC50 was > 100 µM (inactive).

Regarding `O=C(N/N=C/c1ccccc1O)c1n[nH]c2c1CCC2`, the EC50 was > 100 µM (inactive).

As to `O=C(NN=Cc1ccccc1)C(=O)NN=Cc1ccccc1`, the EC50 was > 100 µM (inactive).

For `O=C1Nc2ccc(Br)cc2C12NNc1ccccc1O2` (stereo unspecified), the IC50 (inhibition of IAP activity) is 0.382 µM.

Take `Cc1ccc(O)c(C=NNC(=O)c2[nH]ncc2Br)c1`: the EC50 is > 100 µM (inactive).

Consider `COc1ccc(/C=N/NC(=O)C(=O)N/N=C/c2ccc(OC)c(OC)c2)cc1OC`, for which the EC50 was > 100 µM (inactive).

Take `Cc1cc(C(=O)NN=Cc2cccc([N+](=O)[O-])c2O)n[nH]1`: the EC50 was > 100 µM (inactive).

For the compound `CCOc1cccc(C=NNC(=O)c2cc(C3CC3)[nH]n2)c1O`, the EC50 was > 100 µM (inactive).

With `Cc1cc(C(=O)N/N=C/c2cc(Br)ccc2O)n[nH]1`, the EC50 was > 100 µM (inactive).

On to `OC(c1nc2ccc(F)cc2[nH]1)C(O)c1nc2ccc(F)cc2[nH]1` (stereo unspecified), for which the EC50 is > 100 µM (inactive).

As for `COc1cc(/C=N/NC(=O)C(=O)N/N=C/c2ccc(O)c(OC)c2)ccc1O`, the EC50 is > 100 µM (inactive).

Turning to `CCN(CC)c1ccc(/C=N/NC(=O)C(=O)N/N=C/c2ccc(N(CC)CC)cc2O)c(O)c1`, the EC50 is > 100 µM (inactive).

`O=C(N/N=C/c1c(O)ccc2ccccc12)C(=O)N/N=C/c1c(O)ccc2ccccc12`: the EC50 was > 100 µM (inactive).

Take `O=C(N/N=C/c1ccccc1O)c1cc(C2CC2)[nH]n1`: the EC50 is > 100 µM (inactive).

Turning to `O=C(NNC(=S)NC(=O)c1ccccc1[N+](=O)[O-])c1ccccc1O`, the EC50 was > 100 µM (inactive).

Consider `O=C(N/N=C/c1ccc(O)cc1)C(=O)N/N=C/c1ccc(O)cc1`, for which the EC50 is > 100 µM (inactive).

Consider `O=C(NC(=S)NNC(=O)c1ccccc1O)c1ccc(F)cc1`, for which the EC50 is > 100 µM (inactive).

In the case of `COc1cccc(C=NNC(=O)c2[nH]nc3c2CCc2ccccc2-3)c1O`, the EC50 was > 100 µM (inactive).

Consider `COc1cc(/C=N\NC(=O)C(=O)N/N=C/c2cc(OC)c(O)c(OC)c2)cc(OC)c1O`, for which the EC50 is > 100 µM (inactive).

Regarding `Cc1ccc(-c2cc(C(=O)NN=Cc3ccccc3O)n[nH]2)o1`, the EC50 was > 100 µM (inactive).

Regarding `Cc1cc(C(=O)NN=Cc2cc(Cl)cc([N+](=O)[O-])c2O)n[nH]1`, the EC50 was > 100 µM (inactive).

Consider `O=C(CCN1C(=O)/C(=C/c2ccccc2Cl)SC1=S)NNC(=O)c1ccccc1O`, for which the EC50 was > 100 µM (inactive).

Take `N#CCOc1ccccc1/C=N/NC(=O)C(=O)N/N=C/c1ccccc1OCC#N`: the EC50 is > 100 µM (inactive).

For the compound `COc1cccc(C=NNC(=O)C(=O)NN=Cc2cccc(OC)c2O)c1O`, the EC50 is > 100 µM (inactive).

Regarding `CC(=O)Nc1cccc(C(=O)NNC(=O)c2n[nH]c(=O)c3ccccc23)c1`, the EC50 is > 100 µM (inactive).

Regarding `Cn1cccc1-c1cc(C(=O)NN=Cc2cc(Br)ccc2O)[nH]n1`, the EC50 is > 100 µM (inactive).

With `COc1cccc(C=NNC(=O)C(=O)NN=Cc2cccc(OC)c2OC)c1OC`, the EC50 was > 100 µM (inactive).

With `C/C(=N\NC(=O)c1[nH]nc2c1CCc1ccccc1-2)c1ccccc1O`, the EC50 was > 100 µM (inactive).

Turning to `COc1cc(OC)cc(C(=O)NNC(=O)c2nn(C)c(=O)c3ccccc23)c1`, the EC50 is > 100 µM (inactive).

`O=C(N/N=C\c1ccc2c(c1)OCO2)C(=O)N/N=C/c1ccc2c(c1)OCO2`: the EC50 was > 100 µM (inactive).

Turning to `CC(=NNC(=O)C(=O)NN=C(C)c1cccc(O)c1)c1cccc(O)c1`, the EC50 is > 100 µM (inactive).

As to `O=C(N/N=C/c1ccccc1C(=O)O)C(=O)N/N=C/c1ccccc1C(=O)O`, the EC50 is > 100 µM (inactive).

`Cc1cc(C(=O)N/N=C\c2cc(C(C)(C)C)ccc2O)n[nH]1`: the EC50 is > 100 µM (inactive).

Regarding `O=C(NN=Cc1c(O)ccc2ccccc12)c1[nH]ncc1Br`, the EC50 is > 100 µM (inactive).

Consider `COc1ccc(-c2cc(C(=O)NN=Cc3c(O)ccc4ccccc34)[nH]n2)cc1`, for which the EC50 was > 100 µM (inactive).

Consider `CCOc1cc(/C=N/NC(=O)C(=O)N/N=C/c2ccc(O)c(OCC)c2)ccc1O`, for which the EC50 is > 100 µM (inactive).

Consider `O=C(NN=Cc1ccc(O)cc1O)C(=O)NN=Cc1ccc(O)cc1O`, for which the EC50 is > 100 µM (inactive).

`COc1cc(OC)c(OC)cc1/C=N/NC(=O)C(=O)N/N=C/c1cc(OC)c(OC)cc1OC`: the EC50 was > 100 µM (inactive).

For `CCCCOc1ccc(/C=N/NC(=O)C(=O)N/N=C/c2ccc(OCCCC)cc2)cc1`, the EC50 is > 100 µM (inactive).

With `O=C(N/N=C/c1ccc2c(c1)OCO2)C(=O)N/N=C/c1ccc2c(c1)OCO2`, the EC50 was > 100 µM (inactive).

For the compound `COc1cccc(C=NNC(=O)C2=NNC(=O)C2C)c1O` (stereo unspecified), the EC50 was > 100 µM (inactive).

Turning to `COC(=O)c1ccc(/C=N/NC(=O)C(=O)N/N=C/c2ccc(C(=O)OC)cc2)cc1`, the EC50 is > 100 µM (inactive).

As for `CC1C(=O)NN=C1C(=O)NN=Cc1ccc(O)cc1O` (stereo unspecified), the EC50 is > 100 µM (inactive).

Regarding `COc1ccc(OC)c(/C=N/NC(=O)C(=O)N/N=C/c2cc(OC)ccc2OC)c1`, the EC50 is > 100 µM (inactive).

Turning to `CC(=O)Nc1ccc(/C=N/NC(=O)C(=O)N/N=C/c2ccc(NC(C)=O)cc2)cc1`, the EC50 is > 100 µM (inactive).

(Values after PubChem BioAssay AID493128 (Sanford-Burnham Center for Chemical Genomics, 2011).)
